Molecular target: CD137 (Homo sapiens, UniProt Q07011)
Assay: CD137 Promega reporter cell activity assay (NF-κB luciferase in Jurkat cells)
Settings: for Average Fold EC50 Improvement relative to CD137L: Average EC50 for CD137L = 14.2 nM; for Average Relative Fold Induction relative to CD137L: Average fold induction for CD137L = 4.0

Sequence of CD137 (Q07011 24-255): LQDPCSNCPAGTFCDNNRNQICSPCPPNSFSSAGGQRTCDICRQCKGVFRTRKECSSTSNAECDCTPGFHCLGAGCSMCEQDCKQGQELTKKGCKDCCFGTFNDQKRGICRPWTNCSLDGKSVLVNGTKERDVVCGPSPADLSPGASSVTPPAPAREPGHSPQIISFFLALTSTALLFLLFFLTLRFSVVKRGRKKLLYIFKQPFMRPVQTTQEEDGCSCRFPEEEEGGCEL

Structure (SMILES) | Average Fold EC50 Improvement relative to CD137L | Average Relative Fold Induction relative to CD137L | CD137 agonism / activation in reporter cells (in words) (FIGS. 1 to 3 and 15) | Average fold induction (reference substance of Table 4A / 4B)
CCCC[C@@H]1NC(=O)[C@H](Cc2ccc(O)cc2)NC(=O)[C@@H]2CCCN2C(=O)[C@H](CC(=O)O)NC(=O)[C@H](C)NC(=O)[C@H](Cc2ccccc2)NC(=O)[C@@H]2CSCCC(=O)N3CN(CN(C3)C(=O)CCSC[C@@H](C(=O)N[C@@H](C)C(N)=O)NC1=O)C(=O)CCSC[C@H](NC(=O)[C@H](C)NC(=O)OCC1C3CCc4nnn(CCOCCOCCOCCOCCOCCOCCOCCOCCOCCOCCOCCOCCOCCOCCOCCOCCOCCOCCOCCOCCOCCOCCOCCNC(=O)CCOCC(COCCC(=O)NCCOCCOCCOCCOCCOCCOCCOCCOCCOCCOCCOCCOCCOCCOCCOCCOCCOCCOCCOCCOCCOCCOCCOCCn5nnc6c5CCC5C(CC6)C5COC(=O)N[C@@H](C)C(=O)N[C@H]5CSCCC(=O)N6CN7CN(C6)C(=O)CCSC[C@H](NC(=O)[C@H](Cc6ccc(O)cc6)NC(=O)[C@H](CCC(N)=O)NC(=O)CNC(=O)[C@H](CCC(=O)O)NC(=O)[C@H](CCC(=O)O)NC(=O)[C@H]([C@@H](C)CC)NC5=O)C(=O)N[C@@H](Cc5ccccc5)C(=O)N[C@@H](C)C(=O)N[C@@H](CC(=O)O)C(=O)N5CCC[C@H]5C(=O)N[C@@H](Cc5ccc(O)cc5)C(=O)N[C@@H](CCCC)C(=O)N[C@H](C(=O)N[C@@H](C)C(N)=O)CSCCC7=O)(COCCC(=O)NCCOCCOCCOCCOCCOCCOCCOCCOCCOCCOCCOCCOCCOCCOCCOCCOCCOCCOCCOCCOCCOCCOCCOCCn5nnc6c5CCC5C(CC6)C5COC(=O)N[C@@H](C)C(=O)N[C@H]5CSCCC(=O)N6CN7CN(C6)C(=O)CCSC[C@H](NC(=O)[C@H](Cc6ccc(O)cc6)NC(=O)[C@H](CCC(N)=O)NC(=O)CNC(=O)[C@H](CCC(=O)O)NC(=O)[C@H](CCC(=O)O)NC(=O)[C@H]([C@@H](C)CC)NC5=O)C(=O)N[C@@H](Cc5ccccc5)C(=O)N[C@@H](C)C(=O)N[C@@H](CC(=O)O)C(=O)N5CCC[C@H]5C(=O)N[C@@H](Cc5ccc(O)cc5)C(=O)N[C@@H](CCCC)C(=O)N[C@H](C(=O)N[C@@H](C)C(N)=O)CSCCC7=O)COCCC(=O)NCCOCCOCCOCCOCCOCCOCCOCCOCCOCCOCCOCCOCCOCCOCCOCCOCCOCCOCCOCCOCCOCCOCCOCCn5nnc6c5CCC5C(CC6)C5COC(=O)N[C@@H](C)C(=O)N[C@H]5CSCCC(=O)N6CN7CN(C6)C(=O)CCSC[C@H](NC(=O)[C@H](Cc6ccc(O)cc6)NC(=O)[C@H](CCC(N)=O)NC(=O)CNC(=O)[C@H](CCC(=O)O)NC(=O)[C@H](CCC(=O)O)NC(=O)[C@H]([C@@H](C)CC)NC5=O)C(=O)N[C@@H](Cc5ccccc5)C(=O)N[C@@H](C)C(=O)N[C@@H](CC(=O)O)C(=O)N5CCC[C@H]5C(=O)N[C@@H](Cc5ccc(O)cc5)C(=O)N[C@@H](CCCC)C(=O)N[C@H](C(=O)N[C@@H](C)C(N)=O)CSCCC7=O)c4CCC31)C(=O)N[C@@H]([C@@H](C)CC)C(=O)N[C@@H](CCC(=O)O)C(=O)N[C@@H](CCC(=O)O)C(=O)NCC(=O)N[C@@H](CCC(N)=O)C(=O)N[C@@H](Cc1ccc(O)cc1)C(=O)N2 (some centres unmarked) [BCY8149] | 140.06 | 0.93 |  | 
CCCC[C@@H]1NC(=O)[C@H](Cc2ccc(O)cc2)NC(=O)[C@@H]2CCCN2C(=O)[C@H](CC(=O)O)NC(=O)[C@H](C)NC(=O)[C@H](Cc2ccccc2)NC(=O)[C@@H]2CSCCC(=O)N3CN(CN(C3)C(=O)CCSC[C@@H](C(=O)N[C@@H](C)C(N)=O)NC1=O)C(=O)CCSC[C@H](NC(=O)[C@H](C)NC(C)=O)C(=O)N[C@@H]([C@@H](C)CC)C(=O)N[C@@H](CCC(=O)O)C(=O)N[C@@H](CCC(=O)O)C(=O)NCC(=O)N[C@@H](CCCCNC(=O)CCc1cn(CCOCCOCCOCCOCCOCCOCCOCCOCCOCCOCCNC(=O)CCOCC(COCCC(=O)NCCOCCOCCOCCOCCOCCOCCOCCOCCOCCOCCn3cc(CCC(=O)NCCCC[C@@H]4NC(=O)CNC(=O)[C@H](CCC(=O)O)NC(=O)[C@H](CCC(=O)O)NC(=O)[C@H]([C@@H](C)CC)NC(=O)[C@@H](NC(=O)[C@H](C)NC(C)=O)CSCCC(=O)N5CN6CN(C5)C(=O)CCSC[C@H](NC(=O)[C@H](Cc5ccc(O)cc5)NC4=O)C(=O)N[C@@H](Cc4ccccc4)C(=O)N[C@@H](C)C(=O)N[C@@H](CC(=O)O)C(=O)N4CCC[C@H]4C(=O)N[C@@H](Cc4ccc(O)cc4)C(=O)N[C@@H](CCCC)C(=O)N[C@H](C(=O)N[C@@H](C)C(N)=O)CSCCC6=O)nn3)(COCCC(=O)NCCOCCOCCOCCOCCOCCOCCOCCOCCOCCOCCn3cc(CCC(=O)NCCCC[C@@H]4NC(=O)CNC(=O)[C@H](CCC(=O)O)NC(=O)[C@H](CCC(=O)O)NC(=O)[C@H]([C@@H](C)CC)NC(=O)[C@@H](NC(=O)[C@H](C)NC(C)=O)CSCCC(=O)N5CN6CN(C5)C(=O)CCSC[C@H](NC(=O)[C@H](Cc5ccc(O)cc5)NC4=O)C(=O)N[C@@H](Cc4ccccc4)C(=O)N[C@@H](C)C(=O)N[C@@H](CC(=O)O)C(=O)N4CCC[C@H]4C(=O)N[C@@H](Cc4ccc(O)cc4)C(=O)N[C@@H](CCCC)C(=O)N[C@H](C(=O)N[C@@H](C)C(N)=O)CSCCC6=O)nn3)COCCC(=O)NCCOCCOCCOCCOCCOCCOCCOCCOCCOCCOCCn3cc(CCC(=O)NCCCC[C@@H]4NC(=O)CNC(=O)[C@H](CCC(=O)O)NC(=O)[C@H](CCC(=O)O)NC(=O)[C@H]([C@@H](C)CC)NC(=O)[C@@H](NC(=O)[C@H](C)NC(C)=O)CSCCC(=O)N5CN6CN(C5)C(=O)CCSC[C@H](NC(=O)[C@H](Cc5ccc(O)cc5)NC4=O)C(=O)N[C@@H](Cc4ccccc4)C(=O)N[C@@H](C)C(=O)N[C@@H](CC(=O)O)C(=O)N4CCC[C@H]4C(=O)N[C@@H](Cc4ccc(O)cc4)C(=O)N[C@@H](CCCC)C(=O)N[C@H](C(=O)N[C@@H](C)C(N)=O)CSCCC6=O)nn3)nn1)C(=O)N[C@@H](Cc1ccc(O)cc1)C(=O)N2 [BCY7845] | 17.78 | 1.54 | high levels of CD137 agonism | **Average fold induction for BCY7845 = 6.3
CCCC[C@@H]1NC(=O)[C@H](Cc2ccc(O)cc2)NC(=O)[C@@H]2CCCN2C(=O)[C@H](CC(=O)O)NC(=O)[C@H](C)NC(=O)[C@H](Cc2ccccc2)NC(=O)[C@@H]2CSCCC(=O)N3CN(CN(C3)C(=O)CCSC[C@@H](C(=O)N[C@@H](C)C(N)=O)NC1=O)C(=O)CCSC[C@H](NC(=O)[C@H](C)NC(C)=O)C(=O)N[C@@H]([C@@H](C)CC)C(=O)N[C@@H](CCC(=O)O)C(=O)N[C@@H](CCC(=O)O)C(=O)N[C@H](CCCCNC(=O)OCC1C3CCc4nnn(CCOCCOCCOCCOCCOCCOCCOCCOCCOCCOCCNC(=O)CCOCC(COCCC(=O)NCCOCCOCCOCCOCCOCCOCCOCCOCCOCCOCCn5nnc6c5CCC5C(CC6)C5COC(=O)NCCCC[C@H]5NC(=O)[C@H](CCC(=O)O)NC(=O)[C@H](CCC(=O)O)NC(=O)[C@H]([C@@H](C)CC)NC(=O)[C@@H](NC(=O)[C@H](C)NC(C)=O)CSCCC(=O)N6CN7CN(C6)C(=O)CCSC[C@H](NC(=O)[C@H](Cc6ccc(O)cc6)NC(=O)[C@H](CCC(N)=O)NC5=O)C(=O)N[C@@H](Cc5ccccc5)C(=O)N[C@@H](C)C(=O)N[C@@H](CC(=O)O)C(=O)N5CCC[C@H]5C(=O)N[C@@H](Cc5ccc(O)cc5)C(=O)N[C@@H](CCCC)C(=O)N[C@H](C(=O)N[C@@H](C)C(N)=O)CSCCC7=O)(COCCC(=O)NCCOCCOCCOCCOCCOCCOCCOCCOCCOCCOCCn5nnc6c5CCC5C(CC6)C5COC(=O)NCCCC[C@H]5NC(=O)[C@H](CCC(=O)O)NC(=O)[C@H](CCC(=O)O)NC(=O)[C@H]([C@@H](C)CC)NC(=O)[C@@H](NC(=O)[C@H](C)NC(C)=O)CSCCC(=O)N6CN7CN(C6)C(=O)CCSC[C@H](NC(=O)[C@H](Cc6ccc(O)cc6)NC(=O)[C@H](CCC(N)=O)NC5=O)C(=O)N[C@@H](Cc5ccccc5)C(=O)N[C@@H](C)C(=O)N[C@@H](CC(=O)O)C(=O)N5CCC[C@H]5C(=O)N[C@@H](Cc5ccc(O)cc5)C(=O)N[C@@H](CCCC)C(=O)N[C@H](C(=O)N[C@@H](C)C(N)=O)CSCCC7=O)COCCC(=O)NCCOCCOCCOCCOCCOCCOCCOCCOCCOCCOCCn5nnc6c5CCC5C(CC6)C5COC(=O)NCCCC[C@H]5NC(=O)[C@H](CCC(=O)O)NC(=O)[C@H](CCC(=O)O)NC(=O)[C@H]([C@@H](C)CC)NC(=O)[C@@H](NC(=O)[C@H](C)NC(C)=O)CSCCC(=O)N6CN7CN(C6)C(=O)CCSC[C@H](NC(=O)[C@H](Cc6ccc(O)cc6)NC(=O)[C@H](CCC(N)=O)NC5=O)C(=O)N[C@@H](Cc5ccccc5)C(=O)N[C@@H](C)C(=O)N[C@@H](CC(=O)O)C(=O)N5CCC[C@H]5C(=O)N[C@@H](Cc5ccc(O)cc5)C(=O)N[C@@H](CCCC)C(=O)N[C@H](C(=O)N[C@@H](C)C(N)=O)CSCCC7=O)c4CCC31)C(=O)N[C@@H](CCC(N)=O)C(=O)N[C@@H](Cc1ccc(O)cc1)C(=O)N2 (some centres unmarked) [BCY8104] | 103.27 | 1.65 |  | 
